Marks after values point to notes of the source that are not given here.
Legend:
glycerol-rat model = test: Acute renal protection in the glycerol rat (haemolytic-uraemic syndrome); format: in vivo; conditions: Group 3: glycerol + 10 mg/kg BW p.o. 8 and 19 h after glycerol injection
Excerpt: B-2. Acute Renal Protection by Partial A1 Agonists in the Glyeriol Rat (Haemolytic-Uraemic Syndrome; Example for Acute Kidney Disorders)
Glycerol-induced haemolysis in rats is an established animal model for investigating haemolysis-induced, acute renal failure with decrease of the individual nephron filtrate and a rapid increase in substances that are usually eliminated in the urine, such as creatinine and urea. Haemolytic uraemia leads to acute blockade of the tubules through protein deposits (“luminal casts”) and finally to degeneration/necrosis of the tubules. At present there is no known curative therapy, i.e. an antidegenerative therapy of structural kidney injury.
Procedure: male Wistar:WU rats (200-220 g) from Charles River received, after withdrawal of water for 14-18 hours, a single subcutaneous injection of a 50% glycerol solution (8 ml/kg body weight) or 0.9% NaCl (controls). The following groups were investigated:
Group 2 Glycerol+placebo (60 g glycerol+100 g water+969 g PEG-400); n=12
Group 3 Glycerol+10 mg/kg BW partial A1 agonist EXAMPLE 1, p.o. in placebo, 8 and 19 hours after glycerol injection; n=8
At the end of the protocol (=24 hours after glycerol intoxication), the following samples were obtained/measurements were carried out: four-hour urine collection with administration of water (10 ml water/kg body weight, p.o.), and TaqMan analyses of renal injury markers in the renal cortex of the right kidney and histological assessment of the “kidney injury score” in the left kidney, by determining the degree of renal damage from the intensity of “luminal casts+tubular necrosis/degeneration”.

[1] = test system: unilaterally nephrectomized SHR; test: Functional and structural renal dysfunction in unilaterally nephrectomized spontaneously hypertensive rats; format: in vivo, rat; conditions: Group 4: SNX + 1.0 mg/kg body weight/day p.o., 4 weeks
Excerpt: (§1) B-4. Effects of Partial A1 Agonists on Renal and Cardiac Function in Unilaterally Nephrectomized and Spontaneously Hypertensive Rats (Example 2 for Chronic Kidney Disorders)
(§2) Unilaterally nephrectomized, spontaneously hypertensive rats (SHR) are an established animal model for investigating the development and progression of hypertensive damage of the glomeruli in the remaining kidney [H. Kinuno et al., “Effects of uninephrectomy on renal structural properties in spontaneously hypertensive rats”, Clin and Exp Pharmacol and Physiol 2005, 32, 173-178]. […] Furthermore, renal excretion of substances usually eliminated in the urine, such as creatinine and urea, is reduced and the electrolyte metabolism is disturbed, the latter being associated with volume retention.
(§3) Procedure: male SHR rats (180-220 g) from Taconic had the left kidney removed in one session (=UNX). Normotensive Wistar Kyoto rats (WKY) from Taconic served as control. The following groups, each with 12 rats per group, were investigated:
(§4) Group 2 UNX+placebo (60 g glycerol+100 g water+969 g PEG-400)
(§5) Group 3 UNX+10 mg/kg body weight/day enalapril (reference therapy, in the drinking water)
(§6) Group 4 SNX+1.0 mg/kg body weight/day partial A1 EXAMPLE 1, p.o. in placebo
(§7) Group 5 SNX+3.0 mg/kg body weight/day partial A1 EXAMPLE 4, p.o. in placebo
(§8) Three weeks after unilateral nephrectomy, the SHRs developed manifest hypertensive damage of the glomeruli in the remaining kidney, from this time point on the rats were treated for a further four weeks corresponding to the groups given above. At the end of the protocol, the following samples were obtained/measurements were carried out: eight-hour urine collection, invasive measurement of systolic and diastolic left ventricular function, and TaqMan analyses of renal injury markers in the renal cortex.

[2] = test system: unilaterally nephrectomized SHR; test: Functional and structural myocardial dysfunction in unilaterally nephrectomized spontaneously hypertensive rats; format: in vivo, rat; conditions: Group 4: SNX + 1.0 mg/kg body weight/day p.o., 4 weeks
Excerpt: as §1, §2, §3, §4, §5, §6, §7, §8

Q: How did the P-creatinine (glycerol-rat model; 24 h after glycerol) turn out when `N#Cc1c(N)nc(SCc2csc(-c3ccc(Cl)cc3)n2)c(C#N)c1-c1ccc(OCCO)cc1` [EXAMPLE 1, 2-Amino-6-({[2-(4-chlorophenyl)-1,3-thiazol-4-yl]methyl}sulphanyl)-4-[4-(2-hydroxyethoxy)phenyl]pyridine-3,5-dicarbonitrile] was run?
A: 52 ± 1 µmol/L

Q: And the P-urea (glycerol-rat model; 24 h after glycerol)?
A: 11 ± 0.4*^ mmol/l

Q: And the “Kidney injury marker-1” value (glycerol-rat model; TaqMan, renal cortex)?
A: 951 ± 216 rel. expression

Q: What about the Lipocalin-2 (glycerol-rat model; TaqMan, renal cortex) of the same compound?
A: 204 ± 23 rel. expression

Q: And the Osteopontin (glycerol-rat model; TaqMan, renal cortex)?
A: 5575 ± 694 rel. expression

Q: What about the U-creatinine (glycerol-rat model; four-hour urine collection) of the same compound?
A: 0.2 ± 0.03 μmol/ml urine/kg BW/h

Q: What about the U-protein (glycerol-rat model; four-hour urine collection) of the same compound?
A: 0.02 ± 0.01 μmol/ml urine/kg BW/h

Q: What about the U-sodium (glycerol-rat model; four-hour urine collection) of the same compound?
A: 4 ± 1 μmol/ml urine/kg BW/h

Q: And the U-urea (glycerol-rat model; four-hour urine collection)?
A: 31 ± 6 μmol/ml urine/kg BW/h

Q: And the Urine volume (glycerol-rat model; four-hour urine collection)?
A: 6.7 ± 0.6 ml/kg BW/h

Q: What about the “Kidney injury score (histo)” value (glycerol-rat model; left kidney, luminal casts + tubular necrosis/degeneration) of the same compound?
A: 1.12

Q: What about the P-creatinine [1] of the same compound?
A: 62 ± 1.1 mmol/L

Q: What about the P-urea [1] of the same compound?
A: 9.3 ± 0.4 mmol/L

Q: What about the U-creatinine [1] of the same compound?
A: 2.1 ± 0.4 μmol/ml urine/kg BW/h

Q: And the U-protein [1]?
A: 0.53 ± 0.10 μmol/ml urine/kg BW/h

Q: And the U-sodium [1]?
A: 37 ± 9 μmol/ml urine/kg BW/h

Q: What about the U-urea [1] of the same compound?
A: 186 ± 31 μmol/ml urine/kg BW/h

Q: And the Urine volume [1]?
A: 2.1 ± 0.2 ml/kg BW/h

Q: What about the “CYR61 [gene expression]” value ([1]; renal cortex) of the same compound?
A: 395 ± 47 rel. expression

Q: What about the “Lipocalin-2 [gene expression]” value ([1]; renal cortex) of the same compound?
A: 160 ± 24 rel. expression

Q: And the Diastolic blood pressure [2]?
A: 112 ± 6 mmHg

Q: And the Heart rate [2]?
A: 295 ± 11 beats/min

Q: And the “Left ventricular hypertrophy (LVS/RV ratio, mg/mg)” value [2]?
A: 4.3 ± 0.2 mg/mg

Q: And the Left-ventricular end-diastolic pressure [2]?
A: 8.5 ± 1.3 mmHg

Q: And the Left-ventricular pressure [2]?
A: 169 ± 8 mmHg

Q: And the “Pressure decrease over time” value [2]?
A: −10181 ± 523 mmHg/s

Q: What about the “Pressure increase over time” value [2] of the same compound?
A: 7943 ± 512 mmHg/s

Q: And the Systolic blood pressure [2]?
A: 171 ± 8 mmHg

From patent US20160311812A1, “ADENOSINE A1 AGONISTS AS MEDICAMENTS FOR KIDNEY DISORDERS” (BAYER PHARMA AKTIENGESELLSCHAFT, priority 2013, published 2016)
